Legend:
[1] = Selectivity index, ratio of CC50 for human RD cells to EC50 for Enterovirus D68 US/KY/14-18953 in human RD cells; type: toxicity, cell-based; details: read-out: Ratio CC50/EC50
[2] = tested on: enterovirus D68; experiment: Anti-viral activity against Enterovirus D68 US/MO/14-18947 infected in human RD cells assessed as reduction in virus induced cytopathic effect incubated for 3 days by CPE assay; type: functional, organism-based; details: Enterovirus D, US/MO/14-18947, RD, 72 h
[3] = tested on: enterovirus D68; experiment: Anti-viral activity against Enterovirus D68 US/KY/14-18953 infected in human RD cells assessed as reduction in virus induced cytopathic effect incubated for 3 days by CPE assay; type: functional, organism-based; details: Enterovirus D, US/KY/14-18953, RD, 72 h
[4] = Cytotoxicity against human RD cells incubated for 3 days by neutral red uptake method; type: cell-based, Rhabdomyosarcoma cell; details: time 3 day
[5] = Cytotoxicity against Enterovirus A71 Tainan/4643/1998 infected human RD cells incubated for 3 days by neutral red uptake method; type: functional; details: Rhabdomyosarcoma cell, 72 h, time 3 day
[6] = Selectivity index, ratio of CC50 for human RD cells to EC50 for Enterovirus A71 Tainan/4643/1998 in human RD cells; type: toxicity, cell-based; details: read-out: Ratio CC50/EC50
[7] = Selectivity index, ratio of CC50 for african green monkey Vero cells to EC50 for Coxsackievirus B3 in green monkey Vero cells; type: toxicity, cell-based; details: read-out: Ratio CC50/EC50
[8] = Cytotoxicity against Enterovirus D68 US/IL/14-18952 infected human RD cells incubated for 3 days by neutral red uptake method; type: functional; details: Rhabdomyosarcoma cell, 72 h, time 3 day
[9] = tested on: Enterovirus; experiment: Anti-viral activity against Enterovirus D68 US/MO/14-18947 infected in human SH-SY5Y cells assessed as inhibition of virus replication by immunofluorescence staining using anti-VPI antibody; type: functional, organism-based; details: D68 US/MO/14-18947, SH-SY5Y
[10] = Selectivity index, ratio of CC50 for human RD cells to EC50 for Enterovirus A71 MP4 in human RD cells; type: toxicity, cell-based; details: read-out: Ratio CC50/EC50
[11] = tested on: Coxsackievirus B3; experiment: Anti-viral activity against Coxsackievirus B3 infected in green monkey Vero cells assessed as reduction in virus induced cytopathic effect incubated for 3 days by CPE assay; type: functional, organism-based; details: Enterovirus B, 72 h
[12] = Selectivity index, ratio of CC50 for human RD cells to EC50 for Enterovirus A71 USA/CT/2016-19519 infected in human RD cells; type: toxicity, cell-based; details: read-out: Ratio CC50/EC50
[13] = tested on: enterovirus D68; experiment: Anti-viral activity against Enterovirus D68 US/MO/14-18947 infected in human RD cells assessed as inhibition of plaque formation incubated for 3 days by plaque assay based crystal violet staining analysis; type: functional, organism-based; details: Enterovirus D, US/MO/14-18947, RD, 72 h
[14] = Cytotoxicity against Enterovirus A71 MP4 infected human RD cells incubated for 3 days by neutral red uptake method; type: functional; details: Rhabdomyosarcoma cell, 72 h, time 3 day
[15] = Cytotoxicity against Enterovirus D68 US/MO/14-18947 infected human RD cells incubated for 3 days by neutral red uptake method; type: functional; details: Rhabdomyosarcoma cell, 72 h, pooled result: one value given for 4 cell lines, strains, targets or settings, time 3 day
[16] = tested on: enterovirus D68; experiment: Anti-viral activity against Enterovirus D68 US/MO/14-18949 infected in human RD cells assessed as reduction in virus induced cytopathic effect incubated for 3 days by CPE assay; type: functional, organism-based; details: Enterovirus D, US/MO/14-18949, RD, 72 h
[17] = tested on: Enterovirus A71; experiment: Anti-viral activity against Enterovirus A71 Tainan/4643/1998 infected in human RD cells assessed as reduction in virus induced cytopathic effect incubated for 3 days by CPE assay; type: functional, organism-based; details: Enterovirus A, Tainan/4643/1998, RD, 72 h
[18] = tested on: enterovirus D68; experiment: Anti-viral activity against Enterovirus D68 US/IL/14-18952 infected in human RD cells assessed as reduction in virus induced cytopathic effect incubated for 3 days by CPE assay; type: functional, organism-based; details: Enterovirus D, US/IL/14-18952, RD, 72 h
[19] = tested on: enterovirus D68; experiment: Antiviral activity against Enterovirus D68 US/MO/14-18947 harboring 2C protein D183V/D323G drug resistant mutant by CPE assay followed by viral 2C gene sequencing; type: functional, organism-based; details: Enterovirus D
[20] = tested on: Enterovirus A71; experiment: Anti-viral activity against Enterovirus A71 MP4 infected in human RD cells assessed as reduction in virus induced cytopathic effect incubated for 3 days by CPE assay; type: functional, organism-based; details: Enterovirus A, 72 h
[21] = tested on: enterovirus D68; experiment: Anti-viral activity against Enterovirus D68 US/IL/14-18956 infected in human RD cells assessed as reduction in virus induced cytopathic effect incubated for 3 days by CPE assay; type: functional, organism-based; details: Enterovirus D, US/IL/14-18956, RD, 72 h

Compound: CC(C)n1ncc2c(C(=O)Nc3ccccn3)cc(-c3cccs3)nc21
- selectivity ratio [1]: > 250
- EC50 [2]: 0.1 µM
- EC50 [3]: 0.2 µM
- CC50 at 72 h [4]: > 50 µM

Compound: CCC(C)n1ncc2c(C(=O)NCCN(C)C)cc(C3CC3)nc21 (centres undefined)
- CC50 [5]: 40.7 µM

Compound: CNCCNC(=O)c1cc(C)nc2c1cnn2C(C)C
- selectivity ratio [1]: > 130
- selectivity ratio [6]: > 600
- selectivity ratio [7]: > 214

Compound: Cc1cc(C(=O)NCCN(C)C)c2c(C)nn(C(C)(C)C)c2n1
- CC50 [8]: 117 µM
- EC50 [9]: 0.34 µM
- selectivity ratio [10]: 58.3
- EC50 [2]: 0.4 µM
- EC50 [11]: 2.1 µM
- selectivity ratio [12]: 89.7
- EC50 [13]: 0.13 µM
- CC50 [14]: 117 µM
- CC50 [15]: 117 µM
- EC50 [16]: 0.7 µM

Compound: Cc1cc(C(=O)NCCN)c2cnn(C(C)C)c2n1
- selectivity ratio [1]: > 63.8
- selectivity ratio [6]: > 429
- selectivity ratio [7]: > 78.9

Compound: CC(C)c1cc(C(=O)NCCN)c2cnn(C(C)C)c2n1
- EC50 [3]: 0.6 µM
- CC50 at 72 h [4]: 170 µM

Compound: CC(C)n1ncc2c(C(=O)NCCN(C)C)cc(C(C)(C)C)nc21
- CC50 at 72 h [4]: 31.4 µM

Compound: CCCn1ncc2c(C(=O)NCCN(C)C)cc(C3CC3)nc21
- EC50 [17]: 2 µM
- CC50 at 72 h [4]: 57.7 µM

Compound: CC(C)n1ncc2c(C(=O)NCCN(C)C)cc(C3CC3)nc21
- CC50 [8]: 200 µM
- EC50 [18]: 0.04 µM
- EC50 [2]: 0.07 µM
- EC50 [13]: 0.025 µM
- CC50 [5]: 200 µM
- EC50 [19]: 1.9 µM
- EC50 [20]: 0.1 µM
- CC50 at 72 h [4]: 200 µM
- CC50 [15]: 200 µM
- EC50 [16]: 0.1 µM

Compound: Cc1cc(C(=O)NC2CCN(C)C2)c2cnn(C(C)C)c2n1 (centres undefined)
- selectivity ratio [1]: > 167
- selectivity ratio [6]: > 600
- selectivity ratio [7]: > 375

Compound: CC(C)n1ncc2c(C(=O)NCCN)cc(C3CC3)nc21
- EC50 [17]: 0.4 µM
- CC50 [5]: 259 µM

Compound: CC(C)n1ncc2c(C(=O)NCCCN(C)C)cc(C3CC3)nc21
- CC50 [5]: 74.1 µM
- selectivity ratio [7]: > 500

Compound: CC(CN)NC(=O)c1cc(C2CC2)nc2c1cnn2C(C)C (centres undefined)
- EC50 [3]: 0.3 µM
- CC50 [5]: 113 µM

Compound: Cc1cc(C(=O)NC2CN(C)C2)c2cnn(C(C)C)c2n1
- selectivity ratio [1]: > 26.5
- selectivity ratio [6]: > 41.1
- selectivity ratio [7]: > 78.9

Compound: Cc1nn(C(C)(C)C)c2nc(C3CC3)cc(C(=O)NCCN(C)C)c12
- CC50 at 72 h [4]: 45.2 µM

Compound: CC(C)n1ncc2c(C(=O)NCCN)cc(C(C)(C)C)nc21
- CC50 at 72 h [4]: 24.6 µM

Compound: CN(C)CCNC(=O)c1cc(C2CC2)nc2c1cnn2C
- selectivity ratio [1]: > 30.6
- CC50 at 72 h [4]: > 300 µM

Compound: Cc1cc(C(=O)NCCN(C)C)c2cnn(C(C)C)c2n1
- CC50 [5]: 112 µM
- selectivity ratio [7]: > 1500

Compound: CC(C1CC1)n1ncc2c(C(=O)NCCN(C)C)cc(C3CC3)nc21 (centres undefined)
- CC50 [5]: 28.4 µM

Compound: CCn1ncc2c(C(=O)NCCN(C)C)cc(C3CC3)nc21
- CC50 [5]: 263 µM
- selectivity ratio [7]: > 167

Compound: CCN(CC)CCNC(=O)c1cc(C2CC2)nc2c1cnn2C(C)C
- CC50 [5]: 89.9 µM

Compound: CNCCCNC(=O)c1cc(C2CC2)nc2c1cnn2C(C)C
- CC50 at 72 h [4]: 183 µM

Compound: CCn1ncc2c(C(=O)NCCNC)cc(C)nc21
- selectivity ratio [1]: > 5.1
- CC50 at 72 h [4]: > 300 µM

Compound: CC(CN(C)C)NC(=O)c1cc(C2CC2)nc2c1cnn2C(C)C (centres undefined)
- CC50 at 72 h [4]: 72.6 µM
- selectivity ratio [7]: > 7500

Compound: CC(CN(C)C)NC(=O)c1cc(C(C)C)nc2c1cnn2C(C)C (centres undefined)
- selectivity ratio [1]: > 100
- selectivity ratio [6]: > 100

Compound: CNCCNC(=O)c1cc(C(C)C)nc2c1cnn2C(C)C
- selectivity ratio [1]: > 250
- selectivity ratio [6]: > 1000

Compound: COCCNC(=O)c1cc(C2CC2)nc2c1cnn2C(C)C
- CC50 at 72 h [4]: 178 µM

Compound: CCn1ncc2c(C(=O)NCCN(C)C)cc(C)nc21
- selectivity ratio [1]: > 16.4
- CC50 at 72 h [4]: > 300 µM

Compound: CC(C)c1cc(C(=O)NCCO)c2cnn(C(C)C)c2n1
- selectivity ratio [1]: > 10.2
- CC50 at 72 h [4]: > 100 µM

Compound: CCN(CC)CCCNC(=O)c1cc(C2CC2)nc2c1cnn2C(C)C
- CC50 [5]: 43.8 µM

Compound: CNCCNC(=O)c1cc(C2CC2)nc2c1cnn2C(C)C
- EC50 [9]: 0.07 µM
- EC50 [18]: 0.2 µM
- EC50 [2]: 0.2 µM
- EC50 [11]: 0.2 µM
- EC50 [17]: 0.2 µM
- EC50 [13]: 0.077 µM
- CC50 [5]: 236 µM
- EC50 [21]: 0.2 µM
- CC50 [14]: 236 µM
- CC50 at 72 h [4]: 236 µM
- CC50 [15]: 236 µM
- selectivity ratio [7]: > 500
- EC50 [16]: 0.2 µM

Compound: CC(CN)NC(=O)c1cc(C(C)C)nc2c1cnn2C(C)C (centres undefined)
- CC50 at 72 h [4]: 118 µM

Compound: CC(C)n1ncc2c(C(=O)NCCN3CCCC3)cc(C3CC3)nc21
- EC50 [17]: 0.2 µM
- CC50 at 72 h [4]: 46.5 µM

Compound: CC(C)c1cc(C(=O)NCCN(C)C)c2cnn(C(C)C)c2n1
- CC50 [8]: 161 µM
- EC50 [9]: 0.03 µM
- EC50 [18]: 0.03 µM
- EC50 [13]: 0.023 µM
- CC50 [5]: 161 µM
- EC50 [21]: 0.07 µM
- CC50 [14]: 161 µM
- CC50 [15]: 161 µM
- selectivity ratio [7]: > 7500

Compound: CNCCNC(=O)c1cc(C2CC2)nc2c1c(C)nn2C(C)(C)C
- CC50 [5]: 31.9 µM
